Literature values in patent US20020192255A1, “Liquid emanator device to deliver self-suspending insecticide droplets” (priority 2001, published 2002).

Conditions: thermal decomposition temperature

Row | SMILES | decomposition of the chemical occurs above
1 | C#CCC1=C(C)C(OC(=O)C2C(C=C(C)C)C2(C)C)CC1=O (mixture of isomers) [ETOC-TG, (+)-2-methyl4-oxo-3-(2-propynyl)-2-cyclopentenyl (+)-cis/trans-chrysanthemate] | above 608 ° F.
2 | CC1(C)[C@H](C=C(Cl)Cl)[C@H]1C(=O)OCc1c(F)c(F)cc(F)c1F [transfluthrin] | above 392 ° F.
